According to patent US10039772B2, “Methods and compositions for treating alcohol use disorders” (priority 2015, dated 2018):
Structures can show the parent of a compound that is named as a salt. Where two headings read alike, the source gives them in different places.

Legend:
Pannexin 1 = Pannexin 1 (Homo sapiens, UniProt Q96RD7); settings: cited from earlier work
C57BL/6J mice = experiment: Mouse drinking in the dark (DID) binge-like drinking; format: in vivo
Description: The DID paradigm capitalizes on the circadian rhythm in drinking of mice utilizing a discrete time of exposure to ethanol to obtain pharmacologically significant ethanol drinking in a four-day procedure (114, 115). It is considered a preclinical model of binge alcohol drinking (116). Blood ethanol levels of C57BL/6J mice in DID are reliably over 100 mg % following the final drinking bout and produce behavioral intoxication in C57BL/6J mice (115). In the DID paradigm, the water bottle is replaced with a bottle containing 20% ethanol for 2 hours in the home cage 3 hours after lights go off. The design involves 3 daily drinking sessions of 2 hours and a fourth of 4 hours (114, 115).

11β-HSD1, 11β-HSD2 = settings: cited from earlier work
[1] = tested on: alcohol dependent and nondependent Wistar rats; experiment: Rat operant self-administration of alcohol (dependent and nondependent rats); format: in vivo; settings: acute, systemic administration
Description: Self-administration sessions were conducted in standard operant conditioning chambers (Med Associates). The rats were trained to self-administer alcohol as previously reported (13). First, the rats were given free-choice access to alcohol (10% w/v) and water for 1 day in their home cages to habituate them to the taste of alcohol. Second, the rats were subjected to an overnight session in the operant chambers with access to one lever (right lever) that delivered water in a fixed-ratio 1 (FR1) schedule where every lever press is reinforced with delivery of 0.1 ml of solution. Food was available ad libitum during this training. Third, after 1 day off, the rats were subjected to a 2 hour session (FR1) for 1 day and a 1 hour session (FR1) the next day, with one lever delivering alcohol (right lever). All of the subsequent sessions lasted 30 min, and two levers were available (left lever: water; right lever: alcohol) until stable levels of intake were reached. Upon completion of this procedure, the animals were allowed to self-administer a 10% (w/v) alcohol solution and water on an FR1 schedule of reinforcement.
The rats were made dependent by chronic, intermittent exposure to alcohol vapors as previously described (13).
Effect of carbenoxolone (CBX) on alcohol drinking in rats and mice.

[2] = tested on: inflammasome activation in neurons and astrocytes; settings: cited from earlier work
dependent rats = settings: systemic glucocorticoid receptor antagonism; cited from earlier work
[3] = 11β-HSD isozyme specificity per cited reference

Chain of Pannexin 1 (Q96RD7 whole entry, species assumed): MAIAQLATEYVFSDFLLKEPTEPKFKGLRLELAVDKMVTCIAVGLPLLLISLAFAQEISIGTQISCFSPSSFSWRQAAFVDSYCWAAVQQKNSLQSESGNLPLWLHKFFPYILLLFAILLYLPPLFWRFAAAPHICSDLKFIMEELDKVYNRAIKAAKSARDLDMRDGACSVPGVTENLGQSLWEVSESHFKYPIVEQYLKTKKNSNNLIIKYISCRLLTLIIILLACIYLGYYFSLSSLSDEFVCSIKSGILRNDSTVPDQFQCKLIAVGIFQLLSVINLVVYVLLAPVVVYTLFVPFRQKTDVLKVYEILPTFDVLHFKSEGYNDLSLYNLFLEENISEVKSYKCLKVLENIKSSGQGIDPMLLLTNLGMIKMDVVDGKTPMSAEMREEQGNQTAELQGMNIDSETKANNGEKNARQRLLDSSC

Row | Compound | Specificity (11β-HSD1, 11β-HSD2; [3]) | other results
1 | 280: mimetic peptide SRPTEKTIFII [Number 280] | – | inhibition of Pannexin 1 (Pannexin 1): inhibited
2 | 281: mimetic peptide GHGDPLHLEEVKC [Number 281] | – | inhibition of Pannexin 1 (Pannexin 1): inhibited
3 | 282: mimetic peptide SSFSWRQAAFVDS [Number 282] | – | inhibition of Pannexin 1 (Pannexin 1): inhibited
4 | 283: mimetic peptide WRQAAFVDSY [Number 283] | – | inhibition of Pannexin 1 (Pannexin 1): inhibited
5 | Nc1ncnc2c1ncn2[C@@H]1O[C@H](COP(=O)(O)OP(=O)(O)OP(=O)(O)O)[C@@H](O)[C@H]1O [ATP] | – | inhibition of Pannexin 1 (Pannexin 1): inhibits
6 | CC1(C)[C@@H](OC(=O)CCC(=O)O)CC[C@]2(C)[C@H]3C(=O)C=C4[C@@H]5C[C@@](C)(C(=O)O)CC[C@]5(C)CC[C@@]4(C)[C@]3(C)CC[C@@H]12 [Number 4, 18α-glycyrrhetinic acid 3β-O-hemisuccinate] | – | time course of the effect on ethanol intake within the DID session (C57BL/6J mice; first 2 h vs whole 4 h session): more pronounced in the first 2 hours; ethanol intake in the DID paradigm (C57BL/6J mice; mice, 4 h drinking session, vs saline vehicle): reduce
7 | O=C(O)CC1(CC(=O)NCc2ccc(F)cc2Cl)CCCC1 [Number 93] | 11β- HSD1 > 2 | –
8 | CC(C)(CC(=O)NC1CC1)CC(=O)N[C@H]1C2CC3CC1C[C@@](O)(C3)C2 [Number 94] | 11β- HSD1 > 2 | –
9 | O=C1CC2(CCN(C(=O)C3(c4ccccc4)CC3)CC2)Oc2ccc(F)cc21 [Number 95] | 11β- HSD1 > 2 | –
10 | O=C(N1CCC2(CCCCC2)C1)C1(c2ccccc2)CC1 [Number 96] | 11β- HSD1 > 2 | –
11 | COc1ccc(C(=O)N2CCC(c3c[nH]c4ccccc34)C2)c(C)c1 (stereo not shown) [Number 97] | 11β- HSD1 > 2 | –
12 | CC(C)(C(=O)N1CCC(c2c[nH]c3ncccc23)C1)c1ccc(Cl)cc1 (stereo not shown) [Number 98] | 11β- HSD1 > 2 | –
13 | O=C(N1CCC(c2c[nH]cn2)CC1)N1CCCc2ccccc21 [Number 99] | 11β- HSD1 > 2 | –
14 | COc1ccc(-c2cnc(N3CCN(C(=O)N4CCC(c5cn[nH]c5)C4)c4ccccc43)nc2)cc1 (stereo not shown) [Number 100] | 11β- HSD1 > 2 | –
15 | CC(C)(C)N1CCN(c2ccc(N3CCN(C(=O)N[C@H]4C5CC6CC4C[C@@](C(N)=O)(C6)C5)c4ccccc43)nc2)CC1 [Number 101] | 11β- HSD1 > 2 | –
16 | O=S1(=O)N=C(NC2CCCCC2)O[C@H]2CCCC[C@H]21 [Number 102] | – | Specificity (11β-HSD1, 11β-HSD2): 11β- HSD1 > 2
17 | CC1(C)OC(N[C@@H](CCO)c2ccc(F)cc2)=NS(=O)(=O)C1(C)C [Number 103] | – | Specificity (11β-HSD1, 11β-HSD2): 11β- HSD1 > 2
18 | O=C(Nc1cccc(C(=O)N2CCC[C@H]3CCCC[C@@H]32)c1)c1ccccc1 [Number 104] | – | Specificity (11β-HSD1, 11β-HSD2): 11β- HSD1 > 2
19 | COc1cc(C(=O)Nc2ccc(C(=O)N3CCCCC3)c(O)c2)cc(OC)c1OC [Number 105] | 11β- HSD1 > 2 | –
20 | O=C(Nc1ccc(C(=O)N2CCC[C@H]3CCCC[C@@H]32)c2ccccc12)c1ccc(Cl)cc1Cl [Number 106] | 11β- HSD1 > 2 | –
21 | COc1ccc(C(=O)N2CCCC(c3ccccc3)CC2)cc1 (stereo not shown) [Number 107] | 11β- HSD1 > 2 | –
22 | COC1(C)CCCN(S(=O)(=O)c2ccc(C(C)(C)C)cc2)CC1 (stereo not shown) [Number 108] | 11β- HSD1 > 2 | –
23 | CC(C)(C)n1ncc2c1CCCN([C@H]1C3CC4CC1C[C@@](O)(C4)C3)C2=O [Number 109] | 11β- HSD1 > 2 | –

Row | Compound | Specificity (11β-HSD1, 11β-HSD2; [3]) | other results
24 | CC1(C)CCN([C@H]2C3CC4CC2C[C@@](O)(C4)C3)C(=O)c2cnn(-c3ccc(Cl)cc3)c21 [Number 110] | 11β- HSD1 > 2 | –
25 | CCN1CCN(C(=O)C23CC4CC(C2)CC(c2ccc(C)cc2)(C4)C3)CC1 [Number 111] | 11β- HSD1 > 2 | –
26 | Cc1ccc(-n2nnnc2SCC(=O)C(C)(C)C)c(C)c1 [Number 112] | 11β- HSD1 > 2 | –
27 | O=C(CSc1nnnn1-c1cccc(Cl)c1)c1ccccc1 [Number 113] | 11β- HSD1 > 2 | –
28 | CS(=O)(=O)NCCC(=O)N1CCC(c2cc(C(=O)N3CCC[C@H]4CCCC[C@H]43)cs2)CC1 [Number 114] | 11β- HSD1 > 2 | –
29 | COc1ccc2nc(NS(=O)(=O)c3ccccc3)sc2c1 [Number 115] | 11β- HSD1 > 2 | –
30 | CC(C)(Oc1ccc(Cl)cc1)C(=O)Nc1nnn[nH]1 [Number 116] | 11β- HSD1 > 2 | –
31 | Cc1nc2c(Cl)c(NS(=O)(=O)c3cc(Cl)ccc3Cl)ccc2s1 [Number 117] | 11β- HSD1 > 2 | –
32 | O=C(Nc1ccc2scnc2c1)c1cc(Cl)cc(Cl)c1 [Number 118] | 11β- HSD1 > 2 | –
33 | CN(Cc1cccs1)C(=O)C12CC3CC(CC(C3)C1)C2 [Number 119] | 11β- HSD1 > 2 | –
34 | Cc1ccc(C2(C(=O)N(C)Cc3cccs3)CC2)cc1 [Number 120] | 11β- HSD1 > 2 | –
35 | CN(C)C(=O)c1ccc(COCC(=O)C23CC4CC(CC(C4)C2)C3)cc1 [Number 121] | 11β- HSD1 > 2 | –
36 | COc1cccc(C(=O)CSc2nnc(C)s2)c1 [Number 123] | 11β- HSD1 > 2 | –
37 | Cn1cnnc1SCC(=O)C12CC3CC(CC(C3)C1)C2 [Number 124] | 11β- HSD1 > 2 | –
38 | Cn1c(N2CCN(S(=O)(=O)c3ccc(C(C)(C)C)cc3)CC2)nc2ccccc21 [Number 125] | 11β- HSD1 > 2 | –
39 | Cc1ccc(S(=O)(=O)N2CCN(c3nc4ccccc4n3C)CC2)cc1 [Number 126] | 11β- HSD1 > 2 | –
40 | CC1(C)[C@@H](O)CC[C@]2(C)[C@H]3C(=O)C=C4[C@@](C)(CC[C@@]5(C)CC[C@@]6(C)C[C@@]45OC6=O)[C@]3(C)CC[C@@H]12 [Number 248] | 11β- HSD1 > 2 | –
41 | CC(=O)O[C@H]1CC[C@]2(C)[C@H]3C(=O)C=C4[C@H]5C[C@@](C)(NS(C)(=O)=O)CC[C@]5(C)CC[C@@]4(C)[C@]3(C)CC[C@H]2C1(C)C [Number 251] | 11β- HSD1 > 2 | –
42 | CCOc1ccc(Nc2ccc(/C(=C3C=C/C(=[N+](/CC)Cc4cccc(S(=O)(=O)[O-])c4)C=C/3C)c3ccc(N(CC)Cc4cccc(S(=O)(=O)[O-])c4)cc3C)cc2)cc1.[Na+] [Number 256, Acid blue 90, Coomassie Brilliant Blue G] | – | inhibition of Pannexin 1 (Pannexin 1): most selective and least detrimental Pannexin 1 inhibitor
43 | CCCN(CCC)S(=O)(=O)c1ccc(C(=O)O)cc1 [Number 257, Probenecid] | – | alcohol self-administration, alcohol dependent rats [1]: decreases; inhibition of Pannexin 1 (Pannexin 1): inhibits; inflammasome activation in neurons and astrocytes [2]: prevents
44 | Nc1ncnc2c1ncn2[C@@H]1O[C@H](COP(=O)(O)OP(=O)(O)OP(=O)(O)O)C(OC(=O)c2ccc(C(=O)c3ccccc3)cc2)C1O (stereo partly shown) [Number 265, 2′(3′)-O-(4-Benzoylbenzoyl)adenosine 5′-triphosphate triethylammonium salt] | – | inhibition of Pannexin 1 (Pannexin 1): inhibit Pannexin 1 more effectively than AYP
45 | O=C(O)c1ccccc1Nc1cccc(C(F)(F)F)c1 [flufenamic acid] | – | inhibition of Pannexin 1 (Pannexin 1): found to inhibit the channel
46 | CC#C[C@]1(O)CC[C@H]2[C@@H]3CCC4=CC(=O)CCC4=C3[C@@H](c3ccc(N(C)C)cc3)C[C@@]21C [mifepristone] | – | escalated alcohol drinking and compulsive response for alcohol (dependent rats): blocked
